Source: ChEMBL document CHEMBL5465560, “Selectivity Literature for EUbOPEN Chemogenomic Library” (2024)

What was measured:
[1] = biological target: Serine/threonine-protein kinase PRP4 homolog (Homo sapiens) (UniProt Q13523); assay: Selectivity interaction (KinomeScan (DiscoverX)) EUB0000666a PRPF4B; conditions: at 10 µM
[2] = biological target: T1, Serine/threonine-protein kinase 3 (Homo sapiens) (UniProt Q13188); assay: Selectivity interaction (KinomeScan (DiscoverX)) EUB0000229b STK3; conditions: at 10 µM
T1 sequence (whole entry): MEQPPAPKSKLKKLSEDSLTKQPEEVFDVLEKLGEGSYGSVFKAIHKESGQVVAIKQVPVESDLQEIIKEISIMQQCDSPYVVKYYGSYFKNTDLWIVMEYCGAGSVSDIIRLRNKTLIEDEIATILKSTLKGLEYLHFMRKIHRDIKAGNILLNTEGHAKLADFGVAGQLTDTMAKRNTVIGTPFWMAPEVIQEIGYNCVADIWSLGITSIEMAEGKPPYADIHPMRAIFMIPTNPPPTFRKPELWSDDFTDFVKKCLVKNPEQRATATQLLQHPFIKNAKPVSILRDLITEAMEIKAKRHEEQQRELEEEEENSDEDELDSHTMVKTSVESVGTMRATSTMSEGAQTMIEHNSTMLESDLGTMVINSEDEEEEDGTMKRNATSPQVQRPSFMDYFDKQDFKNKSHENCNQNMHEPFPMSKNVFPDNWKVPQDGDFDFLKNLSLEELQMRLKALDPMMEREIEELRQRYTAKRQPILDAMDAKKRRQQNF

[3] = Selectivity interaction (KinomeScan (DiscoverX)) EUB0000229b CDK2H; conditions: at 1 µM
[4] = biological target: Atypical kinase COQ8A, mitochondrial (Homo sapiens, UniProt Q8NI60); assay: Selectivity interaction (KinomeScan (DiscoverX)) EUB0001079a ADCK3; conditions: at 1 µM
[5] = biological target: T2, Inhibitor of nuclear factor kappa-B kinase subunit alpha (Homo sapiens) (UniProt O15111); assay: Selectivity interaction (Kinase panel (KiNativ target engagement assay in Jurkat cells)) EUB0001635a CHUK; assay type: cell-based; conditions: Selectivity number of off-targets 0.0, Selectivity number of targets 233.0, Source Knowledge https://www.sciencedirect.com/science/article/pii/S2451945619300674?via%3Dihub, at 1 µM
T2 sequence (whole entry): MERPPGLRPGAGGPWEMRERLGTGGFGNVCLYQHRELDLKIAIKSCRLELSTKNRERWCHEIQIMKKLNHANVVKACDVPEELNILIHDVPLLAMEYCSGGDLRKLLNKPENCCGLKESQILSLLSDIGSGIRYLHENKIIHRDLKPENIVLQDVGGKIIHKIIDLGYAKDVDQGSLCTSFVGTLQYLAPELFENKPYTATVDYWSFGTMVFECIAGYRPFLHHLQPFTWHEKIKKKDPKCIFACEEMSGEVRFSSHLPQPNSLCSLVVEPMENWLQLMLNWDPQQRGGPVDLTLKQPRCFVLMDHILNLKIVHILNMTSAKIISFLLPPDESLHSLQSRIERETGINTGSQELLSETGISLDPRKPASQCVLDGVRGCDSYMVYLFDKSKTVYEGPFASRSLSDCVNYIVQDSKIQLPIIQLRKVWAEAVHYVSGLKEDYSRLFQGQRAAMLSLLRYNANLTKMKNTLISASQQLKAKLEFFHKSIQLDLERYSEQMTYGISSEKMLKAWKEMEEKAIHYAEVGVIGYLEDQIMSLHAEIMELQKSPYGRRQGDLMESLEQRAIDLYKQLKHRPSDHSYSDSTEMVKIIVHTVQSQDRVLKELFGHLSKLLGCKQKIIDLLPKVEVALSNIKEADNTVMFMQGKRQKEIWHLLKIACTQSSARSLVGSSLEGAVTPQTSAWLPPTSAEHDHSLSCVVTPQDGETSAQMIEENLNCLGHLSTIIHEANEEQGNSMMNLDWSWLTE

[6] = biological target: T3, Serine/threonine-protein kinase DCLK3 (Homo sapiens) (UniProt Q9C098); conditions: at 10 µM
T3 sequence (whole entry): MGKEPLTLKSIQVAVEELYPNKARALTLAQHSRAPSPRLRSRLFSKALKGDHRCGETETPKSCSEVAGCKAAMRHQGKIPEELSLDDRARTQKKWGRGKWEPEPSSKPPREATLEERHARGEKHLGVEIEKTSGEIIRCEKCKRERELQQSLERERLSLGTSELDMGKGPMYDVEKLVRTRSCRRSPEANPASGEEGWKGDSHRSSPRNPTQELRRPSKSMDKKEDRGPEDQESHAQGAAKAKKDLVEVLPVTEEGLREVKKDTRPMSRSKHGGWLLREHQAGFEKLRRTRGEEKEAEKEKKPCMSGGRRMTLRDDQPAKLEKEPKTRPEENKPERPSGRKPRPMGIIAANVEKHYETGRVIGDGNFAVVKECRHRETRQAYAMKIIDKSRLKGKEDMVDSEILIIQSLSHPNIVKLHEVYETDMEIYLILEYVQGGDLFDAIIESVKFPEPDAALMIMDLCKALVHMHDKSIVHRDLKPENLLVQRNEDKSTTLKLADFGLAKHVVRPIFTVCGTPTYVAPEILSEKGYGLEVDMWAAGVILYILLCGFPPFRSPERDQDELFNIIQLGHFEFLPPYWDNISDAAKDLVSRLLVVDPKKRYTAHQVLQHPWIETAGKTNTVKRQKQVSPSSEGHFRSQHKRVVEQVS

[7] = biological target: Casein kinase I isoform delta (Homo sapiens, UniProt P48730); assay: Selectivity interaction (Kinase panel (Invitrogen)) EUB0000639a CSNK1D; conditions: at 200 nM
[8] = system: Epidermal growth factor receptor (Homo sapiens), P00533 [L858R]; conditions: at 10 µM
[9] = biological target: Homeodomain-interacting protein kinase 2 (Homo sapiens, UniProt Q9H2X6); assay: Selectivity interaction (KinomeScan (DiscoverX)) EUB0000045b HIPK2
[10] = biological target: Proto-oncogene tyrosine-protein kinase Src (Homo sapiens, UniProt P12931); assay: Selectivity interaction (KinomeScan (DiscoverX)) EUB0000618a SRC; conditions: at 10 µM
[11] = biological target: High affinity nerve growth factor receptor (Homo sapiens, UniProt P04629)
[12] = biological target: Serine/threonine-protein kinase mTOR (Homo sapiens, UniProt P42345); assay: Selectivity interaction (ActivX KiNativ screen (ex vivo kinase selectivity in human PBMCs)) EUB0001619a MTOR; assay type: cell-based; conditions: PBMC, at 1 µM
[13] = biological target: Wee1-like protein kinase (Homo sapiens) (UniProt P30291); assay: Selectivity interaction (KinomeScan (DiscoverX)) EUB0000607a WEE1; conditions: at 10 µM
[14] = biological target: Serine/threonine-protein kinase N2 (Homo sapiens, UniProt Q16513); assay: Selectivity interaction (ProQinase) EUB0000171b PKN2
[15] = biological target: Macrophage-stimulating protein receptor (Homo sapiens, UniProt Q04912); assay: Selectivity interaction (ProQinase) EUB0000171b MST1R
Macrophage-stimulating protein receptor, sequence (Q04912 25-304 limits assumed): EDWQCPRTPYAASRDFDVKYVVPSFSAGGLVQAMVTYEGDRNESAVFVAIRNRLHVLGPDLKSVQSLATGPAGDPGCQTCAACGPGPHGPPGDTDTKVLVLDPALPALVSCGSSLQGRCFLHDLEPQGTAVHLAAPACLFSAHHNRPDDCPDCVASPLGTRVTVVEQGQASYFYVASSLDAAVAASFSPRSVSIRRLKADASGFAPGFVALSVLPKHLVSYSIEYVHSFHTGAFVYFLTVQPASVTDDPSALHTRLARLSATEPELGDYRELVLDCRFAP
Macrophage-stimulating protein receptor, sequence (Q04912 310-1400 limits assumed): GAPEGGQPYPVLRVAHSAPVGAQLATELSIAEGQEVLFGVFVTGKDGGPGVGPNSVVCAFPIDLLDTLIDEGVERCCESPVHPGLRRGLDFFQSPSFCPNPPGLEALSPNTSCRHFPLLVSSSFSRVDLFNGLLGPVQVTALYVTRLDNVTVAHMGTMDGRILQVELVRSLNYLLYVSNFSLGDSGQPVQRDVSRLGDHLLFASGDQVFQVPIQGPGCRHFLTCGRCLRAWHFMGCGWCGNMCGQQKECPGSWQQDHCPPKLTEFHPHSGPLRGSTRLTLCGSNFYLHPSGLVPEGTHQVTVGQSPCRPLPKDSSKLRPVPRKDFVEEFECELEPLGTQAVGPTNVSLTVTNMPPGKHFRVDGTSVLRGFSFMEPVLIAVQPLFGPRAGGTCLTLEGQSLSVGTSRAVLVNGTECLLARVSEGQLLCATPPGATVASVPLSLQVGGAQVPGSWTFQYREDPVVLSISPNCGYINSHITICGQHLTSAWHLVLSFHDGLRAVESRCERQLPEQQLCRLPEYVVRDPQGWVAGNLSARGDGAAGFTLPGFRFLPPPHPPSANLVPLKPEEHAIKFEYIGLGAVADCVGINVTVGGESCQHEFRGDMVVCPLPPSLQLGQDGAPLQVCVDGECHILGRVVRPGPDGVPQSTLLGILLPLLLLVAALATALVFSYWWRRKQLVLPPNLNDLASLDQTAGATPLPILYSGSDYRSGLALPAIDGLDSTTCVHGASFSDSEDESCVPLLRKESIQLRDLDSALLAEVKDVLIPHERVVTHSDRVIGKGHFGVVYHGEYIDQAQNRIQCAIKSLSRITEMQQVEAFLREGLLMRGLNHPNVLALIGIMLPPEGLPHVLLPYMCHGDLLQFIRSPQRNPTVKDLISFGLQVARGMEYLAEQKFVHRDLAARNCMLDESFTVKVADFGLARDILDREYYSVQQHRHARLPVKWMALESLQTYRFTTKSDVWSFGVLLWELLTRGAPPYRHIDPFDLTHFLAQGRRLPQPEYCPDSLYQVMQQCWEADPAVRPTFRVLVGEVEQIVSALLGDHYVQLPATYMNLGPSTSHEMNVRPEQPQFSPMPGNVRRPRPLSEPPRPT

Serine/threonine-protein kinase N2, sequence (Q16513 whole entry, looked up): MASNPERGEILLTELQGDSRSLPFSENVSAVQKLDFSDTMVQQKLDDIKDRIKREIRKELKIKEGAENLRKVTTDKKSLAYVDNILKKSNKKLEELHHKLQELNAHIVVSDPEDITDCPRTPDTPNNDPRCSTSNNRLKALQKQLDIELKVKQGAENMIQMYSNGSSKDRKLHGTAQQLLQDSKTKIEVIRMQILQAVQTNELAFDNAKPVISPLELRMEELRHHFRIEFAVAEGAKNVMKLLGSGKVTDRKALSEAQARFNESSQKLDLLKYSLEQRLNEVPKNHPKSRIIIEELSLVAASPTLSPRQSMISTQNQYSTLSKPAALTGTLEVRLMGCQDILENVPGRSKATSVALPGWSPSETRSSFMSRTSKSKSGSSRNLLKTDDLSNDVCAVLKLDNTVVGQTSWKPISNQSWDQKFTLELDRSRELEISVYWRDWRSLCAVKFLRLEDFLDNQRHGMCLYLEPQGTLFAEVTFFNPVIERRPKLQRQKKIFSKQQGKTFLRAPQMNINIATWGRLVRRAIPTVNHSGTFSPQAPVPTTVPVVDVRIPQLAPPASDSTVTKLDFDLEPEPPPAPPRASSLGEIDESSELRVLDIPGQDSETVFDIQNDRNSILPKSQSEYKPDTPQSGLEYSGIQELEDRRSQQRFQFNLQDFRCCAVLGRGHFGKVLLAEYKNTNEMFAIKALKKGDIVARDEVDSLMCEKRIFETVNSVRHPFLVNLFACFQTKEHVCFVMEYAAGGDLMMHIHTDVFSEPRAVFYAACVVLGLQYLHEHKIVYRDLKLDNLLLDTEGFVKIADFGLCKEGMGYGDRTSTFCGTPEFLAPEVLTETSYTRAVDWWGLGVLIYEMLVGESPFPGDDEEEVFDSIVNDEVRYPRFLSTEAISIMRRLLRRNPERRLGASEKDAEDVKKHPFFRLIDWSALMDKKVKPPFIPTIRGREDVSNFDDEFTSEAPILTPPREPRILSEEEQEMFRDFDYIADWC
Homeodomain-interacting protein kinase 2, sequence (Q9H2X6 whole entry, looked up): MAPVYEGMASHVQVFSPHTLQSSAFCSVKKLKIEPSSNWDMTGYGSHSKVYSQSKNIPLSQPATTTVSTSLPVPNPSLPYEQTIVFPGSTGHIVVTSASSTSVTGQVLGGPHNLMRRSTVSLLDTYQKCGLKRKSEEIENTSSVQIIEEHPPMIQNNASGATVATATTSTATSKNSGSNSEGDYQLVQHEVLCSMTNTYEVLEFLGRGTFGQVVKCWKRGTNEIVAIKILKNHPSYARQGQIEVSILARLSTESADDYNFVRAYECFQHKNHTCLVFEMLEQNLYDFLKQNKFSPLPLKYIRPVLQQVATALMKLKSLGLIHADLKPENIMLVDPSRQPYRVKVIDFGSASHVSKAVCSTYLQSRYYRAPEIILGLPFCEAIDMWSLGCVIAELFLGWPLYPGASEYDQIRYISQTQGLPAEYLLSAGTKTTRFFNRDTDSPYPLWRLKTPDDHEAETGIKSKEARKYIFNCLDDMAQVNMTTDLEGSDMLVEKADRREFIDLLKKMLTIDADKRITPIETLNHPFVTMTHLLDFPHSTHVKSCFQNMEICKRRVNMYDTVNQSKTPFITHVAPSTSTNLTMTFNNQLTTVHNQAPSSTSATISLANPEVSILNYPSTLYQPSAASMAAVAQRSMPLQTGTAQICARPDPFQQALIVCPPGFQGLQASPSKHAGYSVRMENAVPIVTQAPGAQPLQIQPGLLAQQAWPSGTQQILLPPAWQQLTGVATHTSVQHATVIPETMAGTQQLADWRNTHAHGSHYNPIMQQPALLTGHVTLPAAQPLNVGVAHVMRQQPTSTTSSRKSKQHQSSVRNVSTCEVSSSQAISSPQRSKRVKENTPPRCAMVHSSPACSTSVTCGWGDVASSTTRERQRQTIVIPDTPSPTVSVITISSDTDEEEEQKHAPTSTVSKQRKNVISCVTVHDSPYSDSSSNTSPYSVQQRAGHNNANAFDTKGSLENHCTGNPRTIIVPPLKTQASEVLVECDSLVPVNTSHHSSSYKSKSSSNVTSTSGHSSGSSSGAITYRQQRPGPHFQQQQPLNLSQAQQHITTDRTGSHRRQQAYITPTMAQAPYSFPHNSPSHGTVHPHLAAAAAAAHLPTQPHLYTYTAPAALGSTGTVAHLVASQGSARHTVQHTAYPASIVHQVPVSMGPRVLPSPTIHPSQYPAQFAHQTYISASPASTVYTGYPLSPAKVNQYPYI
Wee1-like protein kinase (Homo sapiens), sequence (P30291 whole entry, looked up): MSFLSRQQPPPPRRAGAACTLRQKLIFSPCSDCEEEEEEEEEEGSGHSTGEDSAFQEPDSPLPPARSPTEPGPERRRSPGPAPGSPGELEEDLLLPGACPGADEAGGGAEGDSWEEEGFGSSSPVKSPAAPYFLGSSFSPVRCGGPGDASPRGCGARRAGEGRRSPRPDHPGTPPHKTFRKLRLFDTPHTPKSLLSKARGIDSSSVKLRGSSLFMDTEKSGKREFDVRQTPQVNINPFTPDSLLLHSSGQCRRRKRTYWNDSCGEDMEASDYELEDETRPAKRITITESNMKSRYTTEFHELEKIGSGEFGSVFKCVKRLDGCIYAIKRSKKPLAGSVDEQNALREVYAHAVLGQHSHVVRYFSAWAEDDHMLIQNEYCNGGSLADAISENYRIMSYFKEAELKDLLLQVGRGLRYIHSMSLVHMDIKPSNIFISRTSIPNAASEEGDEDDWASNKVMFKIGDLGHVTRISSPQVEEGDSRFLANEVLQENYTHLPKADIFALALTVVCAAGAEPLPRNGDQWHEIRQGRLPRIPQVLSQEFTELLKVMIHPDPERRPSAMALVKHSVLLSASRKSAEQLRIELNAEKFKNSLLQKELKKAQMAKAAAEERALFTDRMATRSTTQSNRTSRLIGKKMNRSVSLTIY
Casein kinase I isoform delta, sequence (P48730 whole entry, looked up, canonical isoform): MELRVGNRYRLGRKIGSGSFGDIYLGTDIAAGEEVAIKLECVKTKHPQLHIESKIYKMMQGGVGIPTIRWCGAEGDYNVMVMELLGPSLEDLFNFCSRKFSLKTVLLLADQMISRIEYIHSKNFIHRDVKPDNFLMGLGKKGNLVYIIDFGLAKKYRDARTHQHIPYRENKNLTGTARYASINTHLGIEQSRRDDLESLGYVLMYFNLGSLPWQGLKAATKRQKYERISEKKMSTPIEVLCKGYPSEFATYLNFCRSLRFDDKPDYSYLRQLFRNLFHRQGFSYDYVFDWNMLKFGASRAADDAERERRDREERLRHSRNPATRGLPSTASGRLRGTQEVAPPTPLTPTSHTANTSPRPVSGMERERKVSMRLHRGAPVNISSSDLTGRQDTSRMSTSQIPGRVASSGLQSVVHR

Question: For O=C(NOC[C@H](O)CO)c1ccc(F)c(F)c1Nc1ccc(I)cc1F, which % of control [1] is on record?
Answer: Its % of control is 77%.

Question: With COc1cc(N(C)c2ccnc3ccc(C(F)(F)F)cc23)cc(OC)c1OC as the compound, how does the % binding [2] read?
Answer: Its % binding is 93%.

Question: And the % binding [3]?
Answer: The % binding was 100%.

Question: With Nc1cnc(N2CCc3cc(S(=O)(=O)Nc4c(F)cc(Cl)cc4F)cc(N4CCCC4=O)c32)nc1 [TP-020n] as the compound, how does the % of control [4] read?
Answer: Its % of control is 100%.

Question: Which % of engagement [5] does the source give for C=CC(=O)Nc1ccc(C(=O)Nc2[nH]nc3c2CN(C(=O)N[C@H](CN(C)C)c2ccccc2)C3(C)C)cc1 here?
Answer: Its % of engagement is -7.3%.

Question: For CCN(CC)CCCCNc1ncc2cc(-c3cc(OC)cc(OC)c3)c(NC(=O)NC(C)(C)C)nc2n1, which % of control [6] is on record?
Answer: The % of control was 100%.

Question: For CC[C@@H]1[C@H](F)C(=O)N[C@@H]1COc1nccc2cc(C(N)=O)c(OC)cc12 [ZIMLOVISERTIB], which % of inhibition [7] is on record?
Answer: Its % of inhibition is 52.2%.

Question: For COCC(=O)NC/C=C/c1ccc2ncnc(Nc3ccc(Oc4ccc(C)nc4)c(C)c3)c2c1 [CP-724714], which % of control [8] is on record?
Answer: The % of control was 0.6%.

Question: Which % of control ([9]; at 1 µM) does the source give for C=CC(=O)Nc1cc(-n2c(=O)ccc3cnc4ccc(-c5ccc(NS(C)(=O)=O)cc5)cc4c32)ccc1C here?
Answer: Its % of control is 100%.

Question: And the % of control ([9]; at 10 µM)?
Answer: Its % of control is 100%.

Question: With O[C@H]1CC[C@H](Nc2ncc3nc(Nc4c(F)cc(F)cc4F)n([C@H]4CCOC4)c3n2)CC1 as the compound, how does the % of control [10] read?
Answer: Its % of control is 72%.

Question: With CCc1cccc(CC)c1NC(=O)c1nn(C)c2c1CCc1cnc(Nc3ccc(C(=O)NC4CCN(C)CC4)cc3OC(F)(F)F)nc1-2 as the compound, how does the IC50 [11] read?
Answer: Its IC50 is over 10 µM.

Question: With N#Cc1cccc(-c2c[nH]c3ncnc(N4CCOCC4)c23)c1 as the compound, how does the % of inhibition [12] read?
Answer: The % of inhibition was 10%.

Question: Which % of control [13] does the source give for CNC(=O)Nc1ccc(-c2nc(N3CC4CCC(C3)O4)c3cnn(C4CCC5(CC4)OCCO5)c3n2)cc1 here?
Answer: Its % of control is 79%.

Question: For C=CC(=O)Nc1cccc(C(=O)Nc2ccc(Nc3cc(-c4[nH]c(SC)nc4C)ccn3)cc2)c1, which % of control ([14]; at 1 µM) is on record?
Answer: The % of control was 90%.

Question: And the % of control ([14]; at 5 µM)?
Answer: The % of control was 76%.

Question: What about the % of control ([15]; at 1 µM) of the same compound?
Answer: The % of control was 92%.

Question: And the % of control ([15]; at 5 µM)?
Answer: The % of control was 104%.
